Paper PMC3974779, “Pterostilbene-Isothiocyanate Conjugate Suppresses Growth of Prostate Cancer Cells Irrespective of Androgen Receptor Status” (PLoS ONE, 2014)

Experiments:
p-ERK in PC-3 cells = assay: Immunoblot of ERK phosphorylation; assay type: cell-based, human; details: 24 h
Protocol: The whole-cell lysates were prepared as described previously in immunoprecipitation (IP) buffer containing 50 mM Tris-HCl (pH 8.0), 150 mM NaCl, 5 mM EDTA, and 1% Triton X-100. Protein aliquots of 500 μg were then incubated overnight at 4°C using 2 μg of antibody directed against AR. The Protein A-Cl Agarose beads were then added and further incubated for 6 h at 4°C. The immunoprecipitates were washed four times with the IP buffer and the immunocomplexes were recovered by boiling in SDS sample buffer. Finally the western blot was carried out using anti-AR, anti-SRC-1 and anti-GRIP-1 antibodies (Santa Cruz, CA, USA). For western blot analysis, the cell lysates were prepared after harvesting them in lysis buffer. About 40 μg of total protein was electrophoresed by 12% SDS-PAGE, and the western blotting was carried out using standard protocol. In brief, the analyzed proteins were transferred to nylon membranes. The blots were then blocked with TBST buffer (20 mM Tris-Cl, pH 7.5, 150 mM sodium chloride, 0.05% Tween-20) containing 5% skim milk powder. They were then washed with TBST buffer and incubated overnight at 4°C with the same buffer containing appropriate amounts of primary antibodies: caspase-3, Bax, Bcl-2, Akt, p-Akt, ERK, p-ERK, AR, SRC-1, GRIP-1 (1∶500) and β-actin (1∶1000). The blots were then washed and incubated with anti-rabbit secondary antibody (1∶20,000) conjugated with horseradish peroxidase (HRP). Color development was performed in the dark by using an ECL kit (Amersham, GE Healthcare, Buckinghamshire, UK). The developed blots were subjected to densitometric analysis by ImageJ 1.43 software (NIH, USA) using β-actin as internal control.
The siRNAs against human Akt and ERK and control siRNA were purchased commercially from Santa Cruz Biotechnology (USA). The LNCaP and PC-3 PCa cells were transfected with siRNAs (at a final concentration of 100 nM) using polyfect transfection reagent (Qiagen, CA, USA) according to manufacturer’s instructions. After 24 h of transfection, the cells were washed properly and replaced with fresh medium. The cells were then treated with 20 μM conjugate for 24 h, and finally protein lysates were prepared on completion of treatment. The levels of p-Akt, p-ERK and cleaved caspase-3 expressions were detected by Western blot analysis.

AR in LNCaP cells = assay: Immunofluorescence staining of endogenous AR; assay type: cell-based, human; details: varying doses of conjugate, 20 μM RESV, DHT
Protocol: The cells were then incubated with AR rabbit polyclonal antibody diluted 1∶200 in blocking buffer for 1 h at RT. Finally, the cells were washed with PBS and incubated with FITC-labelled anti-rabbit secondary antibody diluted 1∶1000 in blocking buffer for 30 min at room temperature. The cells were then observed under a fluorescence microscope (Zeiss, Axiovert 25, Germany).

[1] = biological target: T1, androgen receptor in LNCaP cells (Homo sapiens, UniProt P10275, T878A); assay: AR transactivation luciferase assay (pMMTV-luc); assay type: cell-based
T1 construct: LNCaP cells, that express endogenous AR; endogenous in cells; host or cells: LNCaP
T1 sequence (P10275 1-920 T878A): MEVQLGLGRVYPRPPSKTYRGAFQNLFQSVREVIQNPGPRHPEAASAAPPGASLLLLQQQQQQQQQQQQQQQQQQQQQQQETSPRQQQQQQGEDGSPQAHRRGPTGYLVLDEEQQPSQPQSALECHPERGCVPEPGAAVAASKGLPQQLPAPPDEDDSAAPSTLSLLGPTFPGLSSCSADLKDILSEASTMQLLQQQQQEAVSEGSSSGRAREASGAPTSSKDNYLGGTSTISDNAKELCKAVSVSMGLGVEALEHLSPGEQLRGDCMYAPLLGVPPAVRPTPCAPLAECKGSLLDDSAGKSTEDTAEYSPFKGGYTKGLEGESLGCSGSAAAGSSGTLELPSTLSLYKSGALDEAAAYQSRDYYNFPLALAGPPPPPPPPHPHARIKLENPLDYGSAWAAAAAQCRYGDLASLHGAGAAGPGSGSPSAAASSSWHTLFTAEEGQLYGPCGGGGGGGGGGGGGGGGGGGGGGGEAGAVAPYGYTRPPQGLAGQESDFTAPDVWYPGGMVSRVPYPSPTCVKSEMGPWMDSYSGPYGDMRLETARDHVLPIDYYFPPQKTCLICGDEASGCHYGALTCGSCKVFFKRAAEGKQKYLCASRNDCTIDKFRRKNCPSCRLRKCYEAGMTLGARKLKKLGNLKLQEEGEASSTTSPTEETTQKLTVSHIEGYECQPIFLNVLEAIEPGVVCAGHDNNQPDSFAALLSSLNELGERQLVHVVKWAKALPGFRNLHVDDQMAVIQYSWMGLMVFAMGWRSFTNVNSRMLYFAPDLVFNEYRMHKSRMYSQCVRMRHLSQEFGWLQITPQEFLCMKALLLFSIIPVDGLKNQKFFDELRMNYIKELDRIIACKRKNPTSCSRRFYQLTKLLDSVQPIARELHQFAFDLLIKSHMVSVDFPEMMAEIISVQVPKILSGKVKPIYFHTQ
Protocol: The LNCaP cells were grown and transiently transfected with pMMTV-neomycin-luciferase plasmid (300 ng/10^5 cells) in RPMI media supplemented with 10% FBS using polyfect transfection reagent (Qiagen, CA, USA) according to manufacturer’s instructions. Then, 24 h after transfection, the cell culture media were changed with media containing 5% charcoal-stripped FBS to reduce the contaminating steroids from the serum and incubated for an additional day before initiating the treatments. In case of PC-3 cells, they were similarly transfected, but in addition to pMMTV-neomycin-luciferase construct, they were also transfected with pSG5-hAR-puro plasmid (full length hAR in pSG5 expression vector) in the ratio of 5∶1 as indicated above. For experiments involving co-regulators, 50 ng of co-activator plasmids (25 ng each of GRIP-1 and SRC-1) along with pMMTV-neo-luc (250 ng) were transfected to LNCaP cells. To evaluate the transfection efficiency, 500 ng/105 cells of the SV40 promoter-Renilla luciferase (pRL-SV40) vector (Promega Madison, USA) were co-transfected as internal control. […] Each experimental point was performed in triplicate and varied by less than 10%. The values of luciferase for each lysates were normalized to the Renilla luciferase activity.

- inhibition at 40 µM ([1]; read-out: inhibition of androgen-induced transactivation): ~73%
Structure (SMILES): COc1cc(/C=C/c2ccc(O)c(/C=N/NC(N)=S)c2)cc(OC)c1 [conjugate, Pterostilbene-isothiocyanate conjugate]
- reduction in level of p-ERK (p-ERK in PC-3 cells; PC-3, 20 μM): 1.3 folds
- reduction in level of p-ERK (p-ERK in PC-3 cells; PC-3, 40 μM): 1.7 folds
- AR immunofluorescence intensity (AR in LNCaP cells): almost complete abolition of fluorescent intensity
- transcriptional activation by compound alone ([1]; 1–40 μM, without DHT): did not induce transcriptional activation
